# Measured values as given in patent US7550471B2, “5-alkyl-7-aminotriazolopyrimidines, methods and intermediary product necessary for the production thereof, agents containing said compounds and the use thereof for fighting against harmful mushrooms” (BASF Aktiengesellschaft, priority 2002, dated 2009).
# Tested on: Alternaria solani
# Test: Activity against early blight of tomato caused by Alternaria solani
# Format: in vivo
# Settings: 250 ppm active compound, tomato plants sprayed one day before infection, assessed after 5 days; untreated plants 90% infected
# Description: The active compounds were formulated separately as a stock solution comprising 0.25% by weight of active compound in acetone or DMSO. 1% by weight of the emulsifier Uniperol® EL (wetting agent having emulsifying and dispersing action based on ethoxylated alkylphenols) was added to this solution. The stock solutions of the active compounds were diluted with water to the stated concentration. Leafs of potted plants of the cultivar “Groβe Fleischtomate St. Pierre” were sprayed to run off point with an aqueous suspension having the concentration of active compound stated below. The next day, the leaves were infected with an aqueous spore suspension of Alternaria solani in a 2% strength biomalt solution of a density of 0.17×10^6 spores/ml. The plants were then placed in a water-vapor-saturated chamber at 20-22° C. After 5 days, the early blight on the untreated but infected control plants had developed to such an extent that the infection could be determined visually in %.
structure (smiles),measurement,value
"Cc1nc2ncnn2c(N2CCC(C)CC2)c1C1CCCC1 [Compound I-1, 5-methyl-6-cyclopentyl-7-(4-methyl-piperidin-1-yl)-[1,2,4]triazolo[1,5-a]pyrimidine]","infection (early blight, determined visually in %)",no infection
